From patent publication US20200384007A1, “LIPID NANOPARTICLES CONTAINING PHARMACEUTICAL AND/OR NUTRACEUTICAL AGENTS AND METHODS THEREOF” (Board of Regents, The University of Texas System, priority 2019, published 2020)
Where two headings read alike, the source gives them in different places.

Legend:
[1] = Physical and chemical stability as lyophilized powder or dry waxy solid at room temperature; format: physicochemical; settings: DHA-dFdC-vitamin E (5.047% w/w) waxy solid mixture, 14 days
Method: A 30% (w/v) stock solution of sucrose as lyoprotectant was prepared with de-ionized and filtered (0.2 μm) water. 900 μL DHA-dFdC-SLNs in water suspension was mixed with 100 μL sucrose solution to obtain a final suspension having 3% (w/v) sucrose. DHA-dFdC-SLNs in suspension were stored at −20° C. for 30 min, transferred to −80° C. for 60 min, and finally transferred to a VirTis Advantage bench top tray lyophilizer (The VirTis Company, Inc. Gardiner, N.Y.). Lyophilization was performed over 72 hours (h) at pressure less than 200 mTorr under nitrogen atmosphere. The shelf temperature was gradually ramped from −40° C. to 26° C. After lyophilization, samples were sealed and stored in a desiccator at room temperature, protected from light.
To evaluate the physical and chemical stability of DHA-dFdC-SLNs in lyophilized powder, DHA-dFdC was extracted from the powder 0, 7, and 30 days post-storage. Lyophilized samples were reconstituted in 1 mL de-ionized and filtered (0.2 μm) water. […] The sample was re-dissolved in 100 μL of THF, and concentration was measured by HPLC.
As a control, DHA-dFdC was dissolved in ethanol and mixed with vitamin E at a final concentration of 5.047% (w/w) (Naguib et al., Neoplasia, 2016; 18(1):33-48). The solution was dried under nitrogen, sealed, and stored at room temperature, protected from light, and the content of DHA-dFdC was measured at various time points

B16-F10 cells = test: In vitro cytotoxicity assay (MTT); format: cell-based, murine; settings: Mus musculus, B16F10 cells, 48 h of incubation
Method: (§1) Cytotoxicity of DHA-dFdC-SLNs was evaluated in TC-1, B16-F10, and M-Wnt cells. Cells were seeded into 96-well plates (4000 cells/well for TC-1 and B16-F10 cells, 1000 cells/well for M-Wnt cells) and incubated at 37° C., 5% CO2 overnight. Cells were treated with various concentrations of DHA-dFdC, DHA-dFdC-SLNs, DHA-dFdC-free SLNs, or dimethyl sulfoxide (DMSO) for up to 48 h. As a control, cells were treated with fresh medium. Cell survival was determined using an MTT assay (Naguib et al., Mol. Pharma., 2014; 11(4):1239-1249). DHA-dFdC was dissolved in DMSO and diluted with cell culture media, whereas DHA-dFdC-SLNs and DHA-dFdC-free SLNs were dispersed directly in cell culture media.

M-Wnt cells = test: In vitro cytotoxicity assay (MTT); format: cell-based, murine; settings: Mus musculus, 24 h of incubation
Method: as §1

B16-F10 tumors [2] = test: Antitumor activity of i.v. DHA-dFdC-SLNs in a mouse model; format: in vivo; settings: 50 mg/kg DHA-dFdC on days 7, 10, 13, 16
Method: Female C57BL/6 mice (18-20 g, 6-8 weeks) were subcutaneously (s.c.) injected with B16-F10 (5×10^5 cells/mouse) in the right flank on day 0. Seven days later, mice were randomized in 5 groups (n=5-6) and i.v. injected with DHA-dFdC (1 mg/mouse, equivalent to 50 mg/kg) dissolved a vehicle solution (Tween 80 (10%, w/v), ethanol (5.2%, v/v), and mannitol (5%, w/v) in water), the vehicle solution (as a control) (Naguib et al., Neoplasia, 2016; 18(1):33-48; Valdes et al., Pharma. Res., 2017; 34(6):1224-1232), DHA-dFdC-SLNs (equivalent to 1 mg of DHA-dFdC/mouse), or the equivalent dose of DHA-dFdC-free SLNs; both SLNs were dispersed in sterile mannitol 5%, (w/v). As a control, one group of mice were left untreated. Treatments were repeated every 3 days for a total of 4 times. Mouse health and tumor growth were monitored daily. Tumor size was measured 2-3 times a week, and tumor volume was calculated as: volume (mm^3)=(length×width^2)/2. Mice were euthanized 17 days after B16-F10 cell injection, and tumor tissues were collected for histology study. For untreated mice, the length of some of the tumors reached 15 mm before day 17 and had to be euthanized earlier.

B16-F10 tumors [3] = test: Histology (H&E) of tumor tissues; format: in vivo, C57BL/6 mice; settings: tumors collected on day 17 after i.v. treatment
Excerpt: Tumor tissues were fixed in formalin, embedded, and stained with hematoxylin and eosin (H&E) in the Histological and Tissue Analysis Facility in the Dell Pediatric Research Institute at The University of Texas at Austin.

[4] = Pharmacokinetic studies, oral and i.v. (Example 2); format: in vivo, C57BL/6 mice
Method: The Institutional Animal Care and Use Committee at The University of Texas at Austin approved the animal protocol. Female C57BL/6 mice (6-8 weeks, Charles River Laboratories, Wilmington, Mass.) were fasted for 3 h. Water was allowed ad libitum. Mice were orally gavaged with DHA-dFdC dissolved in a vehicle solution (Tween 80 (10%, w/v), ethanol (5.2% v/v), and mannitol (5%, w/v) in sterile water) (Naguib, et al., Neoplasia, 2016, 18, (1), 33-48; Valdes, et al., Pharma. Res., 2017, 34, (6), 1224-1232) or the DHA-dFdC-SLNs suspended in a sterile mannitol solution (5%, w/v), or intravenously injected with the DHA-dFdC-SLNs suspended in a sterile mannitol solution (5%, w/v). The dose of DHA-dFdC was 2 mg per mouse. Mice (n=3) were euthanized at various time points (e.g., 0.25, 0.5, 1, 2, 5, 8, 12, and 24 h). Blood was collected into heparin-coated tubes, which were then centrifuged at 13,000 rcf for 20 min to isolate plasma. The plasma (200 μL) was mixed with 200 μL of isopropanol and 200 μL of cold PBS, vortexed and then incubated at 4° C. for 5 min Following incubation, 1000 μl of ethyl acetate was added. The mixture was vortexed for 5 min, followed by centrifugation at 18,000 rcf for 5 min. The supernatant was collected and dried under nitrogen. Finally, the residue was re-dissolved in 100 μl of THF, which was then analyzed using HPLC (Naguib, et al., Neoplasia, 2016, 18, (1), 33-48). As internal control 4-(N)-stearoyl 2′,2′-difluorodeoxycytidine (GemC18) was added in the samples before extraction (Sloat, et al., Intl. J. Pharma., 2011, 409, (1), 278-288). Data were analyzed using PK Solver®, assuming a two-compartmental model (Wang, et al., Oncotarget, 2017, 8, (52), 89876).

B16-F10 tumors [5] = test: Antitumor activity of orally administered DHA-dFdC-SLNs in tumor-bearing mice (survival); format: in vivo; settings: oral gavage
Method: Female C57BL/6 mice (18-20 g) were subcutaneously (s.c) injected with B16-F10 (5×10^5 cells/mouse) in the right flank on day 0. Seven days later, mice were randomized into 4 groups (n=7-8) and orally gavaged with DHA-dFdC (250 μg/mouse) dissolved in vehicle (Naguib, et al., Neoplasia, 2016, 18, (1), 33-48; Valdes, et al., Pharma. Res., 2017, 34, (6), 1224-1232), DHA-dFdC-SLNs (250 μg/mouse of DHA) dispersed in mannitol 5%, or DHA-dFdC-free SLNs dispersed in mannitol 5%. As a control, one group of mice were left untreated. Treatment was repeated every day until day 11. Mice were allowed to rest for two days, and treatment was resumed on day 13 and continued until day 20. Mice were monitored daily until the endpoint (e.g., death, tumor size reaching 15 mm, tumor ulceration, body weight loss of more than 20%, or other signs of severe distress and discomfort).

[6] = in water; cited from earlier work
[7] = in an aqueous solution, DBA/2 mice; cited from earlier work
[8] = system: NCI-60 DTP human tumor cell lines; settings: cited from earlier work
pancreatic tumor = settings: several mouse models of pancreatic cancer; cited from earlier work
[9] = oral administration, 2 mg DHA-dFdC per mouse

For CC/C=C\C/C=C\C/C=C\C/C=C\C/C=C\C/C=C\CCC(=O)Nc1ccn(C2OC(CO)C(O)C2(F)F)c(=O)n1 (stereo not shown) [DHA-dFdC, 4-(N)-docosahexaenoyl 2′, 2′-difluorodeoxycytidine], the “DHA-dFdC left after storage” value [1] was 19.1%±7.0, the IC50 (B16-F10 cells) was 1810 nM and the IC50 (M-Wnt cells) was 2150 nM. The tumor growth delay (B16-F10 tumors [2]) was 4 days, the “tumor size / control of tumor growth versus comparison groups” value (B16-F10 tumors [2]) was “no significant difference” and the “H&E histology findings in tumors” value (B16-F10 tumors [3]) was “vascular collapse, high desmoplasia, and necrotic areas”. For the same compound, the bioavailability ([4]; female, C57BL/6, mouse, plasma, 2 mg per mouse, oral, in Tween 80/ethanol/water solution) was 54%, the Tmax ([4]; female, C57BL/6, mouse, plasma, po, 2 mg, oral administration, 2 mg DHA-dFdC per mouse, read-out: Tmax) was 1.7 h and the Cmax ([4]; female, C57BL/6, plasma, oral administration, 2 mg DHA-dFdC per mouse) was 10500 ng/mL. The AUC(0-t) ([4]; female, C57BL/6, plasma, oral administration, 2 mg DHA-dFdC per mouse, read-out: AUC 0-24) was 114 µg·h/mL, the T1/2α [4, 9] was 1.07 h and the Tmax [4, 9] was 1.75 h. For the same compound, the k12 [4, 9] was 0.56 h⁻¹, the “survival compared to untreated mice” value (B16-F10 tumors [5]; 250 μg DHA-dFdC per mouse daily for 12 days) was “did not significantly affect mouse survival” and the “mice showing signs of toxicity (body weight decrease of more than 20% or severe tumor ulceration)” value (B16-F10 tumors [5]; in Tween 80/ethanol/water solution, 250 μg per mouse daily) was 62.5%. For the same compound, the intrinsic solubility [6] was roughly 25 µg/mL, the “repeat dose-maximum tolerated dose” value [7] was 50 mg/kg and the antitumor activity [8] was “potent and broad spectrum antitumor activity”. For the same compound, the “control of pancreatic tumor growth versus gemcitabine” value (pancreatic tumor) was “significantly more effective than the molar equivalent dose of gemcitabine”.
